Source: patent US6130228A, “Polycyclic compounds” (priority 1995, dated 2000)
Like-named read-outs stand apart in the source and are kept apart here.

Tests used:
[1] = molecular target: T1, Acetylcholinesterase (AChE) (Rattus norvegicus, UniProt P37136); experiment: biochemical; assay type: biochemical, Male Rats (Sprague Dawley), brain
T1 construct: The brain was removed and homogenised; from tissue; host or cells: rat brain (male Sprague Dawley), Triton X100 detergent supernatant of the EDTA-buffer pellet
Procedure: (i) Enzyme Source for AChE
5 Male Rats (Sprague Dawley) weighing approx 250 g were killed by CO2 overdose and cervical dislocation.
The brain was removed and homogenised (9 strokes at 840 rpm with 4 volumes of phosphate buffer pH 7.4+10 mM (EDTA) and centrifuged at 27,000 g for 30 minutes.
The supernatant was discarded and the pellet resuspended in phosphate buffer with 10 mM EDTA+1- Triton X100 (2 ml/g wet weight). The crude homogenate was centrifuged at 27,000 g for 30-40 minutes.
The pellet was discarded and the supernatant was dispensed into 0.5 ml aliquots and stored at -20° C. until required.
Phosphate Buffer (0.1M. pH 7.4)
Made up to 500 ml with distilled H2 O, pH 7.4.
0.5 ml aliquots of brain (enzyme solution) as prepared above were thawed out. 2 ml of phosphate buffer was added to each aliquot. 2 ml of the enzyme solution was incubated with 2 ml PDS for 60 minutes at 0° C. The composition of blank, control and test solutions are given below:
0.9 ml phosphate buffer (0.1 M, pH 7.4)
0.85 ml phosphate buffer (0.1M, pH 7.4)
0.05 ml acetylthiocholine (5.2 mM)
(§1) 0.8 ml phosphate buffer (0.1M, pH 7.4)
0.05 ml Acetylthiocholine 5.2 mM
Change in absorbance was measured at 30 second intervals for 3 minutes at […]. The control was taken as 100%. Inhibitor was calculated as a percentage of the control. A graph of Log of inhibitor conc. versus % control was plotted and IC5. values calculated by interpolation.

[2] = molecular target: T2, Butyrylcholinesterase (BChE) (Equus caballus, UniProt P81908); experiment: biochemical
T2 construct: purchased Sigma c-7512
Procedure: The following components were utilised:
Phosphate Buffer (0.1M, pH 7.4)
Made up to 500 ml with distilled H2 O, pH 7.4
1 ml of enzyme solution (i), was incubated with 2 ml PDS for 60 minutes at 0° C.
Components of the assay blank, controls and test solutions are provided below:
0.9 ml phosphate buffer (0.1M, pH 7.4)
0.85 ml phosphate buffer (0.1 M, pH 7.4)
0.05 ml Acetylthiocholine (5.2 mM)
as §1
Control was taken as 100%. Inhibitor was calculated as a percentage of control. A graph of Log of inhibitor conc. versus % control was plotted and IC50 values calculated by interpolation.

5-HT (serotonin) uptake = assay type: biochemical, rat (Sprague Dawley)
Procedure: (§2) One male rat (Sprague Dawley) weighing approx. 200-250 g was sacrificed by cervical dislocation. The brain was dissected out and the cerebellum discarded. The brain was then weighed and 10 ml ice cold sucrose (0.32M) added per gram tissue. […] The pellet was discarded and the supernatant retained (crude synaptosomal preparation).
(§3) All tubes were set up in triplicate. […] 100 μl of the prepared synaptosomal preparation was added to each tube and incubated for 5 minutes in a shaking water bath at 37° C. Any reaction was stopped by plunging the tubes into an ice water bath. ^3 H NA (10^-7 M) or ^3 H 5-HT ([…]) was added to each tube and incubated for 5 minutes in a shaking water bath at 37° C. Any reaction was stopped by plunging the tubes into an ice-water bath. Accumulated monoamines were collected using a Brandell Cell Harvester under mild vacuum. Filters were rinsed (2×) using 4 ml of ice-cold 0.9% saline. Scintillation fluid was added (4 ml/tube). Radioactivity was measured on a scintillation counter.
(§4) Non-specific values were subtracted from total values. The control was taken as 100%. Drug effects were calculated as a percentage of control inhibitor value. A graph of log of drug concentration versus % control was plotted and IC50 values were calculated by interpolation.

[3] = test system: noradrenaline (NA) uptake; experiment: Monoamine Uptake Inhibition Assay, noradrenaline (synaptosomal preparation); assay type: biochemical, rat (Sprague Dawley)
Procedure: as §2, §3, §4

[4] = not believed to be irreversible in nature; cited from earlier work
[5] = Table 1, form BASE, ±SEM, n = 5, read-out: IC50 AChE
[6] = Table 1, form SALT, ±SEM, n = 5, read-out: IC50 AChE
[7] = Table 1, form SALT, ±SEM, n = 5, read-out: IC50 BChE
[8] = Table 1, form BASE, n = 5, read-out: IC50 5HT UPTAKE
[9] = Table 1, form SALT, n = 5, read-out: IC50 5HT UPTAKE
[10] = Table 1, form BASE, n = 5, read-out: IC50 NA UPTAKE
[11] = Table 1, form SALT, n = 5, read-out: IC50 NA UPTAKE
[12] = Table 3, read-out: 5-HT UPTAKE INHIBITION
[13] = Table 3, read-out: NA UPTAKE INHIBITION

T2 sequence (P81908 whole entry): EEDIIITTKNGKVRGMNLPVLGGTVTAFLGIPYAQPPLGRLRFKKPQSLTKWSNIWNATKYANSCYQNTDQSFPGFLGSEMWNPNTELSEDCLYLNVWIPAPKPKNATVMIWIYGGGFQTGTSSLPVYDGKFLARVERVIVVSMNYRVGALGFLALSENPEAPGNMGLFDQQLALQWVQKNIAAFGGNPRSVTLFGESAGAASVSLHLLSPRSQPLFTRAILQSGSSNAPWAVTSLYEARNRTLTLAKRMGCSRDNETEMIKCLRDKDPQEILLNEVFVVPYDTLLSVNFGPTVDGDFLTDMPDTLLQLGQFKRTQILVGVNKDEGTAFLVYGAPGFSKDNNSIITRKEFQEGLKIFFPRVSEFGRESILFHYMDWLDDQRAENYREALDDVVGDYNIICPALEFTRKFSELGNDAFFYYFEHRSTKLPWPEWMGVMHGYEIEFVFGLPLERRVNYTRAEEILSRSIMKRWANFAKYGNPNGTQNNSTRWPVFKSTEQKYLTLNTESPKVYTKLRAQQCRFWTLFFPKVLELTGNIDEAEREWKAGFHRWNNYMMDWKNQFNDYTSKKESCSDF
T1 sequence (P37136 32-614): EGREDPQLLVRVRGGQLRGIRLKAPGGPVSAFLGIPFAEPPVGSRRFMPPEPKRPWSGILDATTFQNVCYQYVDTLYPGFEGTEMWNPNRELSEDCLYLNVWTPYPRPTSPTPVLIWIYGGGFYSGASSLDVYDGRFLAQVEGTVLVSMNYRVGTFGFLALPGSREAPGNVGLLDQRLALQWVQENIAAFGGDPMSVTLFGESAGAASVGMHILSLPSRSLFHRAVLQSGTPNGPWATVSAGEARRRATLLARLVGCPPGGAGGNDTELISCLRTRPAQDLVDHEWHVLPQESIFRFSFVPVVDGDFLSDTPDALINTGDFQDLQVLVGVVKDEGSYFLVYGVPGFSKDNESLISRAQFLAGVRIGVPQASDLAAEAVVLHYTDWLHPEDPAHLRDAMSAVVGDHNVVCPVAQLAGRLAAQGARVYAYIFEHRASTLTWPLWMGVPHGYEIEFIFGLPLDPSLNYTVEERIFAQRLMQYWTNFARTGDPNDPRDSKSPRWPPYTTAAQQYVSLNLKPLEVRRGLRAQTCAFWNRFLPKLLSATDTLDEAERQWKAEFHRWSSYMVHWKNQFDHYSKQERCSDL

| Compound | IC50 [1, 5] [µM] | IC50 [1, 6] [µM] | IC50 ([2]; Table 1, form BASE, ±SEM, n = 5, read-out: IC50 BChE) [µM] | IC50 [2, 7] [µM] | IC50 (5-HT (serotonin) uptake; [8]) [µM] | IC50 (5-HT (serotonin) uptake; [9]) [µM] | IC50 [3, 10] [µM] | IC50 [3, 11] [µM] | AChE TACRINE RATIO [1] | IC50 ([1]; Table 2, read-out: AChE IC50) [µM] | BChE TACRINE RATIO [2] | IC50 ([2]; Table 2, read-out: BChE IC50) [µM] | 5-HT UPTAKE INHIBITION TACRINE RATIO (5-HT (serotonin) uptake) | IC50 (5-HT (serotonin) uptake; [12]) [µM] | NA UPTAKE INHIBITION TACRINE RATIO [3] | IC50 [3, 13] [µM] | side effect [4] |
| --- | --- | --- | --- | --- | --- | --- | --- | --- | --- | --- | --- | --- | --- | --- | --- | --- | --- |
| COc1cccc2c1CCc1c-2nc2ccccc2c1N [Compound 4, 7-Amino-5,6-dihydro-4-methoxybenz-[c]-acridine] | 47.5 | 17.1 | 10.3 | 1.9 | 5.8 | 2.1 | 1.4 | 12.2 | – | – | – | – | – | – | – | – | – |
| Nc1c2c(nc3ccccc13)-c1ccccc1CC2 [Compound 3, 7 Amino-5,6-dihydro-benz-[c]-acridine] | 37.4 | 7.8 | – | 3.8 | 4.6 | 2 | 12.1 | 13.2 | – | – | – | – | – | – | – | – | – |
| Nc1c2c(nc3ccc(F)cc13)CCC2 [Compound 11, 9-Amino-7-fluoro-2,3-dihydro-1H-cyclopenta-[b] quinoline] | – | – | – | – | – | – | – | – | 0.650 | 0.12 | 0.033 | 0.75 | 2.054 | 3.7 | 0.558 | 12 | – |
| Nc1c2c(nc3c(Cl)cccc13)CCC2 [Compound 22, 9-Amino-5-chloro-2,3-dihydro-1H-cyclopenta[b] quinoline] | – | – | – | – | – | – | – | – | 0.022 | 3.5 | 0.002 | 14.5 | 0.073 | 104 | 2.161 | 3.1 | – |
| Nc1c2c(nc3c(O)cccc13)CCC2 [Compound 12, 9-Amino-5-hydroxy-2,3-dihydro-1H-cyclopenta [b] quinoline] | – | – | – | – | – | – | – | – | 0.078 | 1 | 0.050 | 0.5 | 0.524 | 14.5 | 9.571 | 0.7 | – |
| Nc1c2c(nc3cccc(F)c13)CCC2 [Compound 14, 9-Amino-8-fluoro-2,3-dihydro-1H-cyclopenta-[b] quinoline] | – | – | – | – | – | – | – | – | 1.000 | 0.078 | 0.017 | 1.51 | 0.177 | 43 | 2.030 | 3.3 | – |
| Nc1c2c(nc3c(F)cccc13)CCC2 [Compound 13, 9-Amino-5-fluoro-2,3-dihydro-1H-cyclopenta-[1,2-b] quinoline] | – | – | – | – | – | – | – | – | 0.269 | 0.29 | 0.093 | 0.27 | 0.181 | 42 | 9.571 | 0.7 | – |
| Nc1c2c(nc3ccccc13)-c1ccccc1CCC2 [Compound 6, 8-Amino-6,7-dihydro-5H-benzo-[6, 7] cyclohepta [1,2-b] quinoline] | 329 | 17.5 | – | 4 | 4.7 | 1 | – | 1.9 | – | – | – | – | – | – | – | – | – |
| Nc1c2c(nc3ccc(Cl)cc13)CCC2 [Compound 19, 9-Amino-7-chloro-2,3-dihydro-1H-cyclopenta-[b] quinoline] | – | – | – | – | – | – | – | – | 0.060 | 1.3 | 0.019 | 1.32 | 1.086 | 7 | 2.481 | 2.7 | – |
| Nc1c2c(nc3ccccc13)-c1ccc(Cl)cc1CC2 [Compound 5, 7-Amino-5,6-dihydro-3-chlorobenz-[c]-acridine] | 144 | 17.9 | – | 7.1 | 14.3 | 5.2 | 4.1 | 6.1 | – | – | – | – | – | – | – | – | – |
| COc1ccc2c(c1)CCCc1c-2nc2ccccc2c1N [Compound 1, 13-Amino-1,2 dihydro-5-methoxy[1H] benz [7] annuleno [5,4-b] quinoline] | 68.8 | 17.4 | – | 34.4 | 0.7 | 0.02 | 3.6 | 1.8 | – | – | – | – | – | – | – | – | – |
| Nc1c2c(nc3ccccc13)CCCC2 [TACRINE, reference compound] | – | – | – | – | – | – | – | – | – | – | – | – | – | – | – | 6.7 | liver damage |
| Nc1c2c(nc3cccc(Cl)c13)CCC2 [Compound 16, 9-Amino-8-chloro-2,3-dihydro-1H-cyclopenta[b]quinoline] | – | – | – | – | – | – | – | – | 0.557 | 0.14 | 0.047 | 0.53 | 0.195 | 39 | 3350.000 | 0.002 | – |
